Data reported in ChEMBL document CHEMBL1201862, “PubChem BioAssay data set” (2004).
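Briefly, cells in 96-well plates were exposed to five compound concentrations for 48 h, and endpoints were estimated by linear interpolation. Abbreviation: GI50, concentration required for 50% inhibition of growth.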 Active and inactive are the calls of the source. Cut-off read from the data, not from the text of the source: active = GI50 up to about 1.1 µM and inactive = higher.

Legend:
Assay in all cases: NCI tumour cell line growth inhibition, 48 h
CCRF-CEM = system: CCRF-CEM
NCI-H226 = system: NCI-H226
SW-620 = system: SW-620
HOP-92 = system: HOP-92
EKVX = system: EKVX
SF-539 = system: SF-539
SN12C = system: SN12C
RPMI-8226 = system: RPMI-8226
SNB-75 = system: SNB-75
OVCAR-5 = system: OVCAR-5
786-0 = system: 786-0
T47D = system: T47D
MCF7 = system: MCF7
NCI/ADR-RES = system: NCI/ADR-RES
OVCAR-8 = system: OVCAR-8
HL-60 = system: HL-60
Hs-578T = system: Hs-578T
NCI-H522 = system: NCI-H522
CAKI-1 = system: CAKI-1
OVCAR-4 = system: OVCAR-4
Malme-3M = system: Malme-3M
MDA-N = system: MDA-N
BT-549 = system: BT-549
ACHN = system: ACHN
HT-29 = system: HT-29
RXF 393 = system: RXF 393
SR = system: SR
SK-MEL-2 = system: SK-MEL-2
SK-MEL-28 = system: SK-MEL-28
DU-145 = system: DU-145
MDA-MB-231 = system: MDA-MB-231
MOLT-4 = system: MOLT-4
IGROV-1 = system: IGROV-1
HCT-116 = system: HCT-116
U-251 = system: U-251
KM12 = system: KM12
M14 = system: M14
SK-MEL-5 = system: SK-MEL-5
UACC-62 = system: UACC-62
HCC 2998 = system: HCC 2998
NCI-H23 = system: NCI-H23
UACC-257 = system: UACC-257
COLO 205 = system: COLO 205
UO-31 = system: UO-31
SNB-19 = system: SNB-19
A549 = system: A549
PC-3 = system: PC-3
MDA-MB-435 = system: MDA-MB-435
K562 = system: K562
NCI-H460 = system: NCI-H460
SF-268 = system: SF-268
LOX IMVI = system: LOX IMVI
TK-10 = system: TK-10
A498 = system: A498
HCT-15 = system: HCT-15
OVCAR-3 = system: OVCAR-3
SF-295 = system: SF-295
HOP-62 = system: HOP-62

Measured: GI50

O=C1C(Cl)C2(CC(/C=C/c3ccccc3Cl)=NN2c2cccc(S(=O)(=O)O)c2)N1c1nc2ccccc2s1 (configuration not stated)
inactive: CCRF-CEM 8.11 µM | NCI-H226 30.2 µM | SW-620 19.4 µM | HOP-92 36.6 µM | EKVX 49 µM | SF-539 7.67 µM | SN12C 93.5 µM | RPMI-8226 9.29 µM | SNB-75 43.5 µM | OVCAR-5 > 100 µM | 786-0 21.9 µM | T47D 11.3 µM | MCF7 21.6 µM | NCI/ADR-RES > 100 µM | OVCAR-8 26.5 µM | HL-60 6.67 µM | Hs-578T 81.8 µM | NCI-H522 12.6 µM | CAKI-1 17.2 µM | OVCAR-4 29.1 µM | Malme-3M 27 µM | MDA-N 46 µM | BT-549 > 100 µM | ACHN 42.7 µM | HT-29 98.2 µM | RXF 393 42.8 µM | SR 1.35 µM | SK-MEL-2 > 100 µM | SK-MEL-28 > 100 µM | DU-145 21.2 µM | MDA-MB-231 79.8 µM | MOLT-4 10.3 µM | IGROV-1 26.9 µM | HCT-116 49.7 µM | U-251 41.7 µM | KM12 14.7 µM | M14 72.6 µM | SK-MEL-5 21.4 µM | UACC-62 18.9 µM | HCC 2998 85.9 µM | NCI-H23 33.6 µM | UACC-257 66.8 µM | COLO 205 > 100 µM | UO-31 4.82 µM | SNB-19 > 100 µM | A549 72.1 µM | PC-3 66.4 µM | MDA-MB-435 1.5 µM | K562 2.11 µM | NCI-H460 63.5 µM | SF-268 66.4 µM | LOX IMVI 12.4 µM | TK-10 24.2 µM | A498 66.7 µM
15.8 µM: HCT-15

CCOC(=O)COc1ccc2c(C)cc(=O)oc2c1
> 100 µM: HCT-15
inactive: CCRF-CEM > 100 µM | NCI-H226 > 100 µM | SW-620 > 100 µM | HOP-92 > 100 µM | EKVX > 100 µM | SF-539 > 100 µM | SN12C > 100 µM | RPMI-8226 > 100 µM | SNB-75 > 100 µM | OVCAR-5 > 100 µM | 786-0 > 100 µM | T47D > 100 µM | MCF7 > 100 µM | NCI/ADR-RES > 100 µM | OVCAR-8 > 100 µM | HL-60 > 100 µM | Hs-578T > 100 µM | NCI-H522 > 100 µM | CAKI-1 > 100 µM | OVCAR-4 > 100 µM | Malme-3M > 100 µM | MDA-N > 100 µM | BT-549 > 100 µM | ACHN > 100 µM | HT-29 > 100 µM | RXF 393 > 100 µM | SR > 100 µM | SK-MEL-2 > 100 µM | SK-MEL-28 > 100 µM | DU-145 > 100 µM | MDA-MB-231 > 100 µM | OVCAR-3 > 100 µM | MOLT-4 > 100 µM | IGROV-1 > 100 µM | SF-295 > 100 µM | HCT-116 > 100 µM | U-251 > 100 µM | KM12 > 100 µM | M14 > 100 µM | SK-MEL-5 > 100 µM | UACC-62 > 100 µM | HCC 2998 34.4 µM | NCI-H23 > 100 µM | UACC-257 > 100 µM | COLO 205 > 100 µM | UO-31 > 100 µM | SNB-19 > 100 µM | A549 > 100 µM | HOP-62 > 100 µM | PC-3 > 100 µM | MDA-MB-435 > 100 µM | K562 > 100 µM | NCI-H460 45.8 µM | SF-268 > 100 µM | LOX IMVI > 100 µM | A498 > 100 µM
